The results in this text go back to ChEMBL document CHEMBL1201862, “PubChem BioAssay data set” (2004).

Each structure is given as a SMILES string. Values joined by “and” are separate entries in the source; they are usually repeats but may differ in a detail not shown here. Equal values may be shown once.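 These data come from cells grown in 96-well plates and exposed to compound for 48 hours at five concentrations. GI50 is the concentration that inhibits growth by half.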 Active and inactive are the calls of the source. No stated cut-off is given here; in the data, active = GI50 up to about 1.1 µM and inactive = higher.

Assay in all cases: NCI tumour cell line growth inhibition, 48 h
The test system of test [1] is SF-268.
The subject of test [2] is Hs-578T.
Test [3] has as its system SNB-19.
For test [4], the system named is OVCAR-8.
Test [5] relates to SK-MEL-2.
Test [6] relates to OVCAR-3.
Test [7] deals with SW-620.
In test [8] the test system is ACHN.
For test [9], the system named is Malme-3M.
In test [10] the test system is KM12.
The test system of test [11] is NCI-H23.
For test [12], the system named is K562.
The subject of test [13] is MCF7.
Test [14] concerns RXF 393.
In test [15] the test system is OVCAR-4.
The test system of test [16] is EKVX.
Test [17] concerns SN12C.
The test system of test [18] is HL-60.
The test system of test [19] is A498.
For test [20], the system named is M14.

Take `c1ccc2c(c1)Nc1c3ccccc3nc3cccc-2c13`: the GI50 is 1.49 µM (inactive) in [1]; 1.73 µM (inactive) in test [2]; 1.82 µM (inactive) in test [3]; 0.507 µM (active) in test [4]; 1.6 µM (inactive) in test [5]; 1.46 µM (inactive) in [6]. In addition, the GI50 in test [7] is 0.283 µM (active); in test [8], 0.818 µM (active); in [9], 1.66 µM (inactive); in [10], 1.12 µM (active); in test [11], 1.35 µM (inactive); in test [12], 0.386 µM (active). Besides, the GI50 in test [13] is 1.24 µM (inactive); in [14] it was 1.51 µM (inactive); in test [15], 1.15 µM (inactive); in [16] it was 1.55 µM (inactive); in test [17], 0.979 µM (active); in [18], 1.58 µM (inactive). Also, the GI50 is 2.51 µM (inactive) in test [19] and 1.76 µM (inactive) in test [20].

With `CC(C)(C)NCCC(O)c1cc(C(F)(F)F)nc2c(C(F)(F)F)cccc12` (stereo not given), the GI50 in [1] is 11.4 µM (inactive); in test [2] it was 14.2 µM (inactive); in test [3], 13.6 µM (inactive); in test [4] it was 7.53 µM (inactive); in [5] it was 11.2 µM (inactive); in [6], 8.38 µM (inactive). For the same compound, the GI50 in [7] was 18 µM (inactive); in [8], 8.3 µM (inactive); in test [9] it was 11.6 µM (inactive); in [10], 2.77 µM (inactive); in [11] it was 4.26 µM (inactive); in test [12] it was 5.14 µM (inactive). Moreover, the GI50 is 12.6 µM (inactive) in [13]; 6.53 µM (inactive) in [14]; 12.3 µM (inactive) in [15]; 14 µM (inactive) in test [16]; 7.71 µM (inactive) in test [17]; 6.37 µM (inactive) in test [18]. Further, the values for the GI50 in test [19] and in test [20] were 15 µM (inactive) and 7.83 µM (inactive), respectively.

As for `Cc1cc(N(C)C)c2ccccc2[n+]1CCCCCCCCCC[n+]1c(C)cc(N(C)C)c2ccccc21.[O-][Cl+3]([O-])([O-])[O-].[O-][Cl+3]([O-])([O-])[O-]`, the GI50 in test [1] was 0.731 µM (active); in test [2] it was 1.52 µM (inactive); in [3], 0.512 µM (active); in test [4] it was 1.07 µM (active); in test [5], 0.962 µM (active); in test [6] it was 0.486 µM (active). The GI50 in test [7] was 1.92 µM (inactive); in test [8] it was 1.48 µM (inactive); in test [9], 11 µM (inactive); in test [10] it was 0.282 µM (active); in test [11], 0.202 µM (active); in [12], 0.128 µM (active). In addition, the GI50 was 0.434 µM (active) in test [13]; 5.27 µM (inactive) in test [14]; 1.63 µM (inactive) in [15]; 1.32 µM (inactive) in test [16]; 0.251 µM (active) in test [17]; 0.275 µM (active) in test [18]. The GI50 in test [19] was 2.07 µM (inactive); in test [20], 2.33 µM (inactive).

For the compound `CC(=O)NNc1nc(C)c(C(/C=C/c2ccccc2O)=N/N=C(N)N)s1`, the GI50 in test [1], in test [2], in test [3], in test [4], in [5] and in [6] was > 100 µM (inactive) throughout. Further, the GI50 in test [7], in test [8], in test [9], in [10], in [11] and in test [12] was > 100 µM (inactive) in each case. Besides, the GI50 was > 100 µM (inactive) in test [13]; > 100 µM (inactive) in test [14]; > 100 µM (inactive) in test [15]; 93.8 µM (inactive) in test [16]; > 100 µM (inactive) in [17]; > 100 µM (inactive) in test [18]. Further, the GI50 in [19] and in test [20] was > 100 µM (inactive) each time.

Consider `Cc1ccc2c(=O)c(-c3nnc(NC4CCCCC4)s3)c[nH]c2n1`, for which the GI50 in test [1], in test [2], in test [3], in [4], in test [5] and in test [6] was > 100 µM (inactive) each time. Besides, the GI50 in test [7], in test [8], in test [9], in [10], in test [11] and in test [12] was > 100 µM (inactive) each time. The GI50 in test [13], in [14], in test [15], in [16], in test [17] and in test [18] was > 100 µM (inactive) throughout. For the same compound, the GI50 in test [19] and in [20] was > 100 µM (inactive) throughout.

As to `NC(Cc1cc(Br)c(O)c(Br)c1)C(=O)O` (stereo not given), the GI50 in [1], in test [2], in test [3], in test [4], in test [5] and in [6] was > 100 µM (inactive) throughout. Also, the GI50 in test [7], in [8], in test [9], in [10], in test [11] and in test [12] was > 100 µM (inactive) throughout. Besides, the GI50 in [13], in test [14], in test [15], in test [16], in test [17] and in test [18] was > 100 µM (inactive) in each case. Moreover, the GI50 in [19] and in test [20] was > 100 µM (inactive) throughout.

In the case of `Cc1cccc(/N=C/C=C(\Cl)c2ccc3ccccc3c2)c1`, the GI50 in test [1] was 22.9 µM (inactive); in test [2], 26.6 µM (inactive); in test [3], 13.9 µM (inactive); in [4], 18.4 µM (inactive); in test [5] it was 22.9 µM (inactive); in test [6], 15 µM (inactive). In addition, the GI50 in test [7] was 9.46 µM (inactive); in test [8], 16.4 µM (inactive); in test [9] it was 17.1 µM (inactive); in test [10], 17.7 µM (inactive); in test [11], 13.9 µM (inactive); in [12], 12.6 µM (inactive). Further, the GI50 in [13] was 16.4 µM (inactive); in [14], 15.6 µM (inactive); in test [15], 11.2 µM (inactive); in test [16], 39.5 µM (inactive); in test [17], 16.6 µM (inactive); in [18] it was 11.4 µM (inactive). Besides, the GI50 in test [19] was > 100 µM (inactive); in [20], 17.1 µM (inactive).

As for `O=c1c2ncn(COCCCl)c2n(-c2ccccc2)c(=S)n1-c1ccccc1`, the GI50 in [1], in test [2], in test [3], in [4], in test [5] and in test [6] was > 100 µM (inactive) each time. Also, the GI50 in test [7], in [8], in test [9], in test [10], in test [11] and in test [12] was > 100 µM (inactive) each time. Also, the GI50 in [13], in test [14], in test [15], in test [16], in [17] and in test [18] was > 100 µM (inactive) throughout. In addition, the GI50 in [19] and in [20] was > 100 µM (inactive) throughout.

For the compound `CC[C@@]1(O)C(=O)OCc2c1cc1n(c2=O)Cc2cc3ccccc3nc2-1` [CAMPTOTHECIN], the GI50 in test [1] was 0.0115 µM (active); in [2], 0.817 µM (active); in test [3], 0.0182 µM (active); in [4], 0.0388 µM (active); in [5], 0.298 µM (active); in [6] it was 0.177 µM (active). The GI50 is 0.0366 µM (active) in [7]; < 0.0116 µM (active) in test [8]; 0.174 µM (active) in [9]; 0.159 µM (active) in test [10]; 0.0194 µM (active) in test [11]; 0.0764 µM (active) in [12]. Further, the GI50 was 0.0113 µM (active) in test [13]; 0.0256 µM (active) in test [14]; 0.209 µM (active) in [15]; 0.0951 µM (active) in [16]; 0.014 µM (active) in [17]; 0.015 µM (active) in test [18]. Further, the GI50 was 0.0322 µM (active) in test [19] and < 0.0206 µM (active) in [20].

`O=C1N/C(=N/N=C\C(O)C(O)C(O)CO)N/C1=C/c1ccc(Cl)cc1` (stereo not given): the GI50 in test [1] is 27 µM (inactive) and 30.3 µM (inactive); in [2], 40.1 µM (inactive) and 29 µM (inactive); in test [3] it was 27 µM (inactive) and 29 µM (inactive); in test [4], 44.1 µM (inactive) and 27.7 µM (inactive); in [5], 30.5 µM (inactive) and 40.1 µM (inactive); in [6], 21.6 µM (inactive) and 17.2 µM (inactive). The GI50 is 60.5 µM (inactive) and 52.1 µM (inactive) in [7]; 18.1 µM (inactive) and 17.8 µM (inactive) in test [8]; 20.9 µM (inactive) and 17 µM (inactive) in [9]; 29.9 µM (inactive) and 37.2 µM (inactive) in test [10]; 30.3 µM (inactive) and 42.8 µM (inactive) in [11]; 27.3 µM (inactive) and 27.2 µM (inactive) in test [12]. The GI50 in test [13] is 29.2 µM (inactive); in test [14], 92 µM (inactive); in test [15], 20.7 µM (inactive); in [16] it was 34.8 µM (inactive) and 26.7 µM (inactive); in test [17], 69 µM (inactive) and 80.5 µM (inactive); in test [18], 35.7 µM (inactive). Further, the GI50 in test [19] was 49.7 µM (inactive) and 39.8 µM (inactive); in [20], 25.9 µM (inactive).
